Measurements reported in ChEMBL document CHEMBL2384919, “Identification of New Nonsteroidal RORα Ligands; Related Structure-Activity Relationships and Docking Studies” (ACS Med Chem Lett, 2013).
pEC50: −log10 of the molar value. Activity calls are given as the source filed them. The calls are words filed in the database; no cut-off is given here.

What was measured:
[1] = target: T1, Nuclear receptor ROR-alpha (Homo sapiens) (UniProt P35398); test: Partial agonist activity at GST-fussed RORalpha (unknown origin) assessed as recruitment of TIF2 mutant-BAP protein after overnight incubation by pull down assay
T1 sequence (whole entry): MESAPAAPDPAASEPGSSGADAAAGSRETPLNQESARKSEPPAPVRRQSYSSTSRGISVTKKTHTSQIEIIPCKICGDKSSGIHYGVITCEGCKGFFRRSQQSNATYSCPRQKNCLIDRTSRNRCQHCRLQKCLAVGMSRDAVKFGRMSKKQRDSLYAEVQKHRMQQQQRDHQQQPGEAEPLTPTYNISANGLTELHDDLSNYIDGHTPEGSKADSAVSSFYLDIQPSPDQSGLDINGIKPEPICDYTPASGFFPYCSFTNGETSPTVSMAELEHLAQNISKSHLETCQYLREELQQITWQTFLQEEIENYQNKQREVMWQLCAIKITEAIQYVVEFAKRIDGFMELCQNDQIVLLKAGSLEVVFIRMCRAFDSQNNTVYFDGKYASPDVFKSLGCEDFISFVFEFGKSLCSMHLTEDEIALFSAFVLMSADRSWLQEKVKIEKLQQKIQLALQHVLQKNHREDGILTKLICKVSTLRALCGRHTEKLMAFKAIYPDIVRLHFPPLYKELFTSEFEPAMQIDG

[2] = target: T1, Nuclear receptor ROR-alpha (Homo sapiens); test: Partial agonist activity at GST-fussed RORalpha (unknown origin) assessed as recruitment of TIF2-BAP protein at 30 uM after overnight incubation by pull down assay relative to 7DC
[3] = target: T1, Nuclear receptor ROR-alpha (Homo sapiens); test: Partial agonist activity at GST-fussed RORalpha (unknown origin) assessed as recruitment of TIF2-BAP protein after overnight incubation by pull down assay relative to 7DC
[4] = target: T2, Nuclear receptor ROR-alpha (Homo sapiens, UniProt P35398); test: Partial agonist activity at GST-fussed RORalpha (unknown origin) assessed as recruitment of TIF2-BAP protein after overnight incubation by pull down assay
T2 sequence (P35398 whole entry): T1 sequence (whole entry)

| Activity [1] | Activity [2] | Emax [3] [%] | pEC50 [4] | SMILES |
| --- | --- | --- | --- | --- |
| inactive | inactive | – | – | COc1cc(C2NC(=O)NC(C)=C2C(=O)OCCc2ccccc2)ccc1OCc1ccccc1 (racemic) |
| inactive | – | 88 | – | CCOc1cc(C2NC(=O)NC(C)=C2C(C)=O)ccc1OCc1ccccc1Cl (stereo in doubt; 1) [listing 1 of 2 here] |
| inactive | – | 19 | < 4.52 | CCOC(=O)C1=C(C)NC(=O)N(C)C1c1ccc(OCc2ccccc2)c(OC)c1 (racemic) |
| inactive | – | 33 | 4.88 | COC(=O)C1=C(C)NC(=O)NC1c1ccc(OCc2ccccc2)c(OC)c1 (racemic) |
| inactive | inactive | – | – | CC1=C(C(=O)Nc2ccccc2)C(c2ccc(OCc3ccccc3)cc2)NC(=O)N1 (racemic) |
| inactive | – | > 45 | < 4.52 | CCOC(=O)C1=C(CC)NC(=O)NC1c1ccc(OCc2ccccc2)c(OC)c1 (racemic) |
| inactive | – | 58 | 4.85 | CCCCOC(=O)C1=C(C)NC(=O)NC1c1ccc(OCc2ccccc2)c(OC)c1 (racemic) |
| – | – | – | < 4.52 | CCOc1cc(C2NC(=O)NC(C)=C2C(C)=O)ccc1OCc1ccccc1Cl (single isomer, unassigned; enantiomer 2) [listing 1 of 2 here] |
| inactive | – | 48 | 4.55 | COc1cc(C2NC(=O)NC(C)=C2C(C)=O)ccc1OCc1ccccc1Cl (racemic) |
| inactive | inactive | – | – | COc1cc(C2NC(=O)NC(C)=C2C(=O)OCCOC(C)C)ccc1OCc1ccccc1 (racemic) |
| inactive | – | 19 | 4.96 | COc1ccc(COC(=O)C2=C(C)NC(=O)NC2c2ccc(OCc3ccccc3)c(OC)c2)cc1 (racemic) |
| – | – | – | 4.90 | CCOc1cc(C2NC(=O)NC(C)=C2C(C)=O)ccc1OCc1ccccc1Cl (stereo in doubt; 1) [listing 2 of 2 here] |
| inactive | – | 29 | < 4.72 | CCOC(=O)C1=C(C)N(C)C(=O)NC1c1ccc(OCc2ccccc2)c(OC)c1 (racemic) |
| inactive | – | 76 | 4.64 | C=CCOC(=O)C1=C(C)NC(=O)NC1c1ccc(OCc2ccccc2)c(OC)c1 (racemic) |
| inactive | inactive | – | – | CCCOc1ccc(C2NC(=O)NC(C)=C2C(=O)OCC)cc1OC (racemic) |
| inactive | inactive | – | – | CCOC(=O)C1=C(C)NC(=O)NC1c1ccc(OCCCc2ccccc2)c(OC)c1 (racemic) |
| inactive | – | 70 | 4.90 | COc1cc(C2NC(=O)NC(C)=C2C(=O)OCc2ccc3c(c2)OCO3)ccc1OCc1ccccc1 (racemic) |
| inactive | inactive | – | – | CC1=C(C(=O)OCC(C)C)C(c2ccc(OCc3ccccc3)cc2)NC(=O)N1 (racemic) |
| inactive | – | 85 | – | CCOc1cc(C2NC(=O)NC(C)=C2C(C)=O)ccc1OCc1ccccc1Cl (single isomer, unassigned; enantiomer 1) [listing 1 of 2 here] |
| inactive | inactive | – | – | CCOC(=O)C1=C(C)NC(=O)NC1c1cc(OC)c(OC)cc1Cl (racemic) |
| inactive | inactive | – | – | COc1cc(C2NC(=O)NC(C)=C2C(=O)NCc2ccccc2)ccc1OCc1ccccc1 (racemic) |

| Activity [1] | Activity [2] | Emax [3] [%] | pEC50 [4] | SMILES |
| --- | --- | --- | --- | --- |
| – | – | 56 | 5.05 | CCOC(=O)C1=C(C)NC(=O)NC1c1ccc(OCc2ccccc2)c(OC)c1 (racemic) |
| inactive | inactive | – | – | COc1cc(C2NC(=O)NC(C)=C2C(C)=O)ccc1OCc1ccccc1 (racemic) |
| inactive | inactive | – | – | COc1cc(C2NC(=O)NC(C)=C2C(N)=O)ccc1OCc1ccccc1 (racemic) |
| inactive | – | 55 | 4.58 | COc1cccc(COC(=O)C2=C(C)NC(=O)NC2c2ccc(OCc3ccccc3)c(OC)c2)c1 (racemic) |
| inactive | inactive | – | – | COc1cc(C2NC(=O)NC(C)=C2C(=O)OCC2CCCCC2)ccc1OCc1ccccc1 (racemic) |
| inactive | – | 27 | < 4.52 | COc1cc(C2NC(=O)NC(C)=C2C(=O)OCCSC)ccc1OCc1ccccc1 (racemic) |
| inactive | – | 12 | < 4.52 | CC1=C(C(=O)OCC(F)(F)F)C(c2ccc(OCc3ccccc3)cc2)NC(=O)N1 (racemic) |
| inactive | – | 44 | < 4.52 | COc1cc(C2NC(=O)NC(C)=C2C(=O)OCc2ccccc2)ccc1OCc1ccccc1 (racemic) |
| inactive | – | 80 | < 4.52 | COc1cc(C2NC(=O)NC(C)=C2C(=O)OCC(F)(F)F)ccc1OCc1ccccc1 (racemic) |
| – | – | 39 | 5.09 | CC1=C(C(=O)OCCOc2ccccc2)C(c2ccc(OCc3ccccc3)cc2)NC(=O)N1 (racemic) |
| inactive | – | 43 | 4.58 | COc1ccc(COC(=O)C2=C(C)NC(=O)NC2c2ccc(OCc3ccccc3)c(OC)c2)cc1OC (racemic) |
| inactive | – | > 41 | – | CCOc1cc(C2NC(=O)NC(C)=C2C(C)=O)ccc1OCc1ccccc1Cl (single isomer, unassigned; enantiomer 2) [listing 2 of 2 here] |
| inactive | – | 36 | 4.69 | CCOC(=O)C1=C(C)NC(=O)NC1c1ccc(OCCc2ccccc2)c(OC)c1 (racemic) |
| inactive | inactive | – | – | COc1cc(C2NC(=O)NC(C)=C2C(=O)O)ccc1OCc1ccccc1 (racemic) |
| – | – | 55 | 5.26 | CCOC(=O)C1=C(C)NC(=O)NC1c1cc(OC)c(OCc2ccccc2Cl)cc1Cl (racemic) |
| inactive | – | 25 | 5.37 | CCOC(=O)C1=C(C)NC(=O)NC1c1ccc(OCc2ccccc2)cc1 (racemic) |
| – | – | – | 4.96 | CCOc1cc(C2NC(=O)NC(C)=C2C(C)=O)ccc1OCc1ccccc1Cl (single isomer, unassigned; enantiomer 1) [listing 2 of 2 here] |
| inactive | inactive | – | – | CCC(C)NC(=O)C1=C(C)NC(=O)NC1c1ccc(OCc2ccccc2)cc1 (racemic) |
| inactive | inactive | – | – | CCOC(=O)C1=C(C)NC(=O)NC1c1cc(OC)c(O)cc1Cl (racemic) |
| inactive | inactive | – | – | COc1cc(C2NC(=O)NC(C)=C2C(=O)OCC2CCCO2)ccc1OCc1ccccc1 (racemic) |
